{"source": "patent US6831080B2", "about": "“Cinnamide derivatives as KCNQ potassium channel modulators” (Bristol-Myers Squibb Company, priority 2001, dated 2004)", "key": {"[1]": {"tested_on": "cortical spreading depression (KCl application), Long-Evans rats", "assay": "In vivo electrophysiology: number of cortical spreading depressions produced by KCl application", "conditions": "1 mg/kg, i.v., 15 min prior to KCl; rat", "from_the_text": "Male Long-Evans rats (300-450 g) were used in the present studies (Harlan). Rats were anesthetized with urethane anesthesia (1.2 g/kg i.p.) and placed in a stereotaxic frame. Under anesthesia a Silastic catheter was placed in the jugular vein of the rats. The skull was exposed using a scalpel. A small hole (approximately 2 mm by 3 mm) was drilled in to the skull rostral to the lambdoid suture using a microdrill and steel burr. The dura was disrupted and a drop of mineral oil was placed in this hole to prevent dehydration of the underlying cortex. Ultimately this hole was used for the application of crystalline KCl (described below).\nTwo additional holes were place in the skull unilaterally at 4 and 8 mm rostral to the application hole. Silver wire electrodes were placed in these latter holes and secured to the skull using acrylic cement. A similar silver wire electrode was sutured to the nuchal muscle to serve as a reference electrode. Electrical DC recordings were obtained using a standard differential amplifier (Warner, DP-304) and commercially available data acquisition equipment (Cambridge Electronic Design, 1401 A-D converter and Spike2 software).\nAll experimental procedures were conducted while the rats were maintained under anesthesia. Rats were injected with test compound, valproic acid or vehicle (100% PEG-400) 15 min prior to the application of crystalline KCl to the application site described above. All injections were given via the jugular vein at a volume of ≦0.5 ml/kg. Only one treatment was tested per animal. The effect of valproic acid was also determined in this study due to the fact that Depakote™ (divalproex sodium) is one of only three drugs currently indicated for the prophylatic treatment of migraine headache. Valproic acid (30-200 mg/kg i.v.) was obtained from Sigma Chemical Company and was dissolved in a vehicle of isotonic saline.\nKCl was applied to the application site for 10 min and was then removed using a saline soaked cotton swab. Mineral oil was subsequently reapplied to the application site. Typically, this application produced a long-lasting series of spreading depressions. The number of spreading depressions produced by this KCl application was the primary measure used to access the effectiveness of compounds in this assay.\nData were analyzed using analyses of variance followed by the Dunnett post-hoc test for pairwise comparisons, when appropriate. A difference was considered significant when p≦0.05.\nThe effect of representative compounds of Formula I on spreading depression is expressed as the percent reduction from vehicle control and is listed in Table 3."}, "[2]": {"tested_on": "nerve injury-induced tactile allodynia (L5/L6 ligation), Sprague Dawley rats", "assay": "Chung model of neuropathic pain (Chung surgery and von Frey test)", "type": "in vivo, rat", "conditions": "i.v., von Frey thresholds over 90 min", "method": "To test agents for activity against peripheral mononeuropathy nerve injury-induced tactile allodynia, male Sprague Dawley rats (wt. 120-160 g) were surgically prepared with unilateral tight ligation of spinal nerves L5 and L6 following the method of Kim and Chung (Kim S. H., Chung J. M. (1992) Pain, September;50(3):355-63). After 3-4 weeks recovery, paw withdrawal to light touch was assessed as described by Chaplan et al. (Chaplan S. R., et al., (1994) J. Neurosci Methods, July;53(1):55-63). In brief, rats are placed in a plastic cage with a wire mesh bottom and allowed to acclimate for 15-30 minutes, until cage exploration and grooming stops. The plantar surface of each hind paw is touched with a series of von Frey hairs with varying stiffness requiring a known force to buckle to determine the nociceptive threshold. Adult male Sprague Dawley rats (avg. wt. 340 g) were tested in the present study. After acclimation, baseline von Frey thresholds were assessed for the injured hindpaw at −15 min. All test compounds were delivered at 0 min by the intravenous (i.v.) route in a volume of 0.5-2 ml/kg. The vehicle for test compounds was 100% PEG-400. For gabapentin the vehicle was deionized H2O. Animals were tested in one of the following 4 treatment conditions: (a) PEG400, (b) gabapentin (Neurontin) 100 mg/kg, (c) test compounds 3 mg/kg and (d) test compounds 10 mg/kg. Following drug administration, von Frey thresholds are measured at 15, 30, 60 and 90 min. Data were analyzed by a 2-way repeated measures analysis of variance followed by Dunnett's test (p<0.05). Experimenters were kept blind to the treatment condition of rats they tested.\nReversal of neuropathic pain behavior may be expressed as a percentage (0-100%) of the maximum possible effect, over and above the vehicle effects. Specifically, drug effects can be described in terms Δ% MPE according to the following equation: [formula]\nAUCdrug=area under the curve for von Frey thresholds of the drug-treated group;\nAUCvehicle=area under the curve for von Frey thresholds in the vehicle group;\nTime=duration of post-drug testing period (90 min); and\nMax=maximum von Frey threshold (15 g).\nFor example, a compound which immediately reversed neuropathic pain behavior to normal levels, such that animals only responded to the highest von Frey filament (15 g), and maintained normal levels through out the post-drug testing period (90 min) would be calculated as Δ% MPE=100%."}, "[3]": {"tested_on": "stretched attend postures, BalbC/HSD mice", "assay": "Canopy test for anxiety: stretched attend postures (SAPs)", "type": "in vivo, mouse", "conditions": "for % Reduction SAPs: i.v., mouse", "from_the_text": "The purpose of the Canopy test is to investigate the potential of compounds of Formula I as effective treatments for anxiety by examining an integral component of the risk assessment repertoire of defensive behaviors, the stretched attend posture (SAPs). […] This behavior is investigatory, and is considered an important behavioral indicator of anxiety in mice (Grewal et al., 1997). In brief, mice are placed on an elevated circular platform with a covered space in the middle, and an open space surrounding the covered zone. The number of SAPs the animals makes when exploring this environment are measured.\nSubjects: Male BalbC/HSD mice (Harlan Sprague Dawley) weighing approximately 20-25 g at the beginning of the experiment, were used. Animals were group housed 4-5 per cage, in standard shoebox cages and maintained on a 12:12 h light-dark cycle (lights on at 0600). All animals were allowed food and water ad libitum throughout the procedure.\nApparatus: The test apparatus is comprised of a black plexiglas circular platform (70 cm diameter) elevated 60 cm above the floor. A clear red plexiglas (translucent) ‘canopy’ (38 cm diameter) is supported 4 cm directly above the platform by a central pillar, effectively dividing the platform into an inner, covered zone (beneath the canopy) and an outer, exposed zone. The apparatus is illuminated by normal room lighting.\nProcedure: On test days mice are transported in their home cage to the testing room which is free of noise/distraction and the mice are injected with the compound of choice, prior to testing. For the KCNQ compounds, when administered IV, pretreatment time is 15 minutes. For oral administration, pretreatment time is 1 hour. Following the pretreatment, the animal is placed in the covered zone of the platform, always oriented in the same direction, facing the pillar. For 5 minutes the animals are allowed to freely explore the apparatus. The dependent variable is the number of Stretched Attend Postures, which are scored by an observer blind to treatment condition. Data were analyzed by an overall analysis of variance followed by Dunnett's post hoc tests. An effect was considered significant if p<0.05.\nAll test compounds are administered in a volume of 10 ml/kg. Vehicle and buspirone (as the positive control) treated mice were run with each experiment, and buspirone was dissolved in the same vehicle as used per each compound. Compounds of Formula I were administered IV, in a vehicle containing 10% PEG400/5% Tween/85% water, warmed on a hot plate."}}, "data": [{"smiles": "C[C@H](NC(=O)/C=C/c1ccc(F)cc1)c1ccc(F)c(N2CCOCC2)c1", "note": "[Example 169, (S)-N-[1-(4-Fluoro-3-morpholin-4-yl-phenyl)-ethyl]-3-(4-fluoro-phenyl)-acrylamide]", "values": [{"measurement": "% Reduction (number of spreading depressions, from vehicle control)", "setting": "[1]", "value": "25 (1 mg/kg, i.v.) %"}, {"measurement": "AUC (Δ% MPE)", "setting": "[2]; 10 mg/kg", "value": "31 (10 mg/kg,i.v.) Δ% MPE"}, {"measurement": "% Reduction SAPs", "setting": "[3]; 10 mg/kg", "value": "18 (10 mg/kg, i.v.) %"}]}, {"smiles": "C[C@H](NC(=O)/C=C/c1ccc(F)cc1)c1ccc2ccccc2c1", "note": "[Example 1, (S)-3-(4-Fluoro-phenyl)-N-(1-naphthalen-2-yl-ethyl)acrylamide]", "values": [{"measurement": "% Reduction (number of spreading depressions, from vehicle control)", "setting": "[1]", "value": "25 (1 mg/kg, i.v.) %"}, {"measurement": "AUC (Δ% MPE)", "setting": "[2]; 3 mg/kg", "value": "8 (3 mg/kg, i.v.) Δ% MPE"}, {"measurement": "% Reduction SAPs", "setting": "[3]; 1.25 mg/kg", "value": "44 (1.25 mg/kg, iv.) %"}]}, {"smiles": "C[C@H](NC(=O)/C=C/c1ccccc1)c1cccc(N2CCOCC2)c1", "note": "[Example 82, (S)-3-Phenyl-N-[1-(3-morpholin-4-yl-phenyl)ethyl]acrylamide]", "values": [{"measurement": "% Reduction (number of spreading depressions, from vehicle control)", "setting": "[1]", "value": "27 (1 mg/kg, i.v.) %"}, {"measurement": "AUC (Δ% MPE)", "setting": "[2]; 10 mg/kg", "value": "25 (10 mg/kg, i.v.) Δ% MPE"}, {"measurement": "% Reduction SAPs", "setting": "[3]; 30 mg/kg", "value": "28 (30 mg/kg, i.v.) %"}, {"measurement": "Stretched attend postures, percent of vehicle control", "setting": "[3]; separate experiments with a vehicle control, dose not given", "value": "75 % of vehicle control"}]}]}
